ChEMBL document CHEMBL1201862, “PubChem BioAssay data set” (2004)
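Assay format: 96-well plates, 48-hour exposure. Abbreviation: GI50, concentration required for 50% inhibition of growth.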 Calls of active or inactive are those of the source. No stated cut-off is given here; in the data, active = GI50 up to about 1.1 µM and inactive = higher.

What was measured:
Assay in all cases: DTP human tumour cell line panel, 48 h
UACC-257 = tested on: UACC-257
CAKI-1 = tested on: CAKI-1
HL-60 = tested on: HL-60
K562 = tested on: K562
UO-31 = tested on: UO-31
Hs-578T = tested on: Hs-578T
OVCAR-5 = tested on: OVCAR-5
SN12C = tested on: SN12C
MDA-MB-231 = tested on: MDA-MB-231
NCI-H23 = tested on: NCI-H23
SF-268 = tested on: SF-268
KM12 = tested on: KM12
A549 = tested on: A549
LOX IMVI = tested on: LOX IMVI
SK-MEL-2 = tested on: SK-MEL-2
HCT-15 = tested on: HCT-15
NCI-H460 = tested on: NCI-H460
T47D = tested on: T47D
HOP-62 = tested on: HOP-62

| Structure (SMILES) | GI50 (UACC-257) | GI50 (CAKI-1) | GI50 (HL-60) | GI50 (K562) | GI50 (UO-31) | GI50 (Hs-578T) | GI50 (OVCAR-5) | GI50 (SN12C) | GI50 (MDA-MB-231) | GI50 (NCI-H23) | GI50 (SF-268) | GI50 (KM12) | GI50 (A549) | GI50 (LOX IMVI) | GI50 (SK-MEL-2) | GI50 (HCT-15) [µM] | GI50 (NCI-H460) | GI50 (T47D) | GI50 (HOP-62) |
| --- | --- | --- | --- | --- | --- | --- | --- | --- | --- | --- | --- | --- | --- | --- | --- | --- | --- | --- | --- |
| COC(=O)CCC(=O)NC1=C(NCc2ccccc2)C(=O)c2ccccc2C1=O | 16.6 µM (inactive) | 26.2 µM (inactive) | 21.8 µM (inactive) | 33.9 µM (inactive) | 32.6 µM (inactive) | > 100 µM (inactive) | 29.5 µM (inactive) | 25.5 µM (inactive) | 23.4 µM (inactive) | 21.3 µM (inactive) | 39.8 µM (inactive) | 24.8 µM (inactive) | 26.2 µM (inactive) | 21.8 µM (inactive) | 18.8 µM (inactive) | 17 | 18 µM (inactive) | 34 µM (inactive) | – |
| CC1=C(C(=O)OCCO[N+](=O)[O-])C(c2cccc([N+](=O)[O-])c2)C(C(=O)OC(C)C)=C(C)N1 (configuration not stated) | 12.3 µM (inactive) | 17.6 µM (inactive) | > 100 µM (inactive) | 18.2 µM (inactive) | 12.6 µM (inactive) | 7.71 µM (inactive) | 14.9 µM (inactive) | 17.4 µM (inactive) | 13.3 µM (inactive) | 17.6 µM (inactive) | 13.1 µM (inactive) | 11 µM (inactive) | 12.9 µM (inactive) | 16.9 µM (inactive) | 13 µM (inactive) | 14.1 | 13.8 µM (inactive) | 15.6 µM (inactive) | 16.6 µM (inactive) |
| C=C(C)C1CC[C@@](C)(O)[C@H](C#N)C1 (some centres not stated) | > 100 µM (inactive) | > 100 µM (inactive) | > 100 µM (inactive) | > 100 µM (inactive) | > 100 µM (inactive) | > 100 µM (inactive) | > 100 µM (inactive) | > 100 µM (inactive) | > 100 µM (inactive) | > 100 µM (inactive) | > 100 µM (inactive) | > 100 µM (inactive) | > 100 µM (inactive) | > 100 µM (inactive) | > 100 µM (inactive) | > 100 | > 100 µM (inactive) | > 100 µM (inactive) | > 100 µM (inactive) |
| C[C@H]1C2Cc3cc(N)ccc3[C@@]1(C)CCN2CCc1ccccc1 | 30.7 µM (inactive) | 64.4 µM (inactive) | 28.9 µM (inactive) | 28.8 µM (inactive) | 52 µM (inactive) | 96.6 µM (inactive) | 74.6 µM (inactive) | > 100 µM (inactive) | > 100 µM (inactive) | 32.8 µM (inactive) | 76 µM (inactive) | 37.5 µM (inactive) | 42.7 µM (inactive) | 20.2 µM (inactive) | 50.7 µM (inactive) | 25.2 | 33.1 µM (inactive) | 31.6 µM (inactive) | 39.5 µM (inactive) |
| Cc1[nH]n(C2=NCCN2)c(=O)c1C | > 100 µM (inactive) | > 100 µM (inactive) | > 100 µM (inactive) | > 100 µM (inactive) | > 100 µM (inactive) | > 100 µM (inactive) | > 100 µM (inactive) | – | > 100 µM (inactive) | > 100 µM (inactive) | > 100 µM (inactive) | > 100 µM (inactive) | > 100 µM (inactive) | > 100 µM (inactive) | > 100 µM (inactive) | > 100 | > 100 µM (inactive) | > 100 µM (inactive) | > 100 µM (inactive) |
| COc1c(O)cc(/C=C/c2cc(O)cc3c2[C@@]2(C(=O)O3)c3c(O)cc(O)cc3OC2c2cccc(O)c2)cc1O (some centres not stated) | > 100 µM (inactive) | 98.4 µM (inactive) | 28 µM (inactive) | 65.3 µM (inactive) | 26.1 µM (inactive) | 72.8 µM (inactive) | – | 19.2 µM (inactive) | > 100 µM (inactive) | 81.7 µM (inactive) | 62.4 µM (inactive) | 39.1 µM (inactive) | > 100 µM (inactive) | 43.7 µM (inactive) | 94 µM (inactive) | 30.5 | 11.3 µM (inactive) | 65.9 µM (inactive) | > 100 µM (inactive) |
| C=CCc1c(C)nc(C)nc1N/N=C/C=C/c1ccccc1 | 14.4 µM (inactive) | 58.6 µM (inactive) | 33.6 µM (inactive) | 23.3 µM (inactive) | 39.7 µM (inactive) | 48.9 µM (inactive) | 99.5 µM (inactive) | 48 µM (inactive) | > 100 µM (inactive) | 27.9 µM (inactive) | 44.1 µM (inactive) | – | 37.4 µM (inactive) | 39.1 µM (inactive) | 36.7 µM (inactive) | 35.4 | 22.4 µM (inactive) | 3.73 µM (inactive) | 16.5 µM (inactive) |
| CC12CC3OC(=O)C1COC14OC5(C2C1=O)C(O)(CCC1C4CC(O)C2(O)CC=CC(=O)C12C)C(=O)OC35C (configuration not stated) | > 100 µM (inactive) | > 100 µM (inactive) | > 100 µM (inactive) | > 100 µM (inactive) | > 100 µM (inactive) | > 100 µM (inactive) | > 100 µM (inactive) | > 100 µM (inactive) | > 100 µM (inactive) | > 100 µM (inactive) | > 100 µM (inactive) | > 100 µM (inactive) | > 100 µM (inactive) | > 100 µM (inactive) | > 100 µM (inactive) | > 100 | > 100 µM (inactive) | > 100 µM (inactive) | – |
| Cc1ccc(NCc2nnc3c(-c4ccccc4)nc4ccccc4n23)cc1 | 36 µM (inactive) | 30.1 µM (inactive) | 14.4 µM (inactive) | 13 µM (inactive) | – | 50.7 µM (inactive) | 39.9 µM (inactive) | 32.6 µM (inactive) | 24.5 µM (inactive) | – | 43.6 µM (inactive) | 22.8 µM (inactive) | 23.2 µM (inactive) | 23.5 µM (inactive) | 24.8 µM (inactive) | 38.5 | 28.8 µM (inactive) | 3.36 µM (inactive) | 46.1 µM (inactive) |
| C=C1CCCCCCCCCCC1[S+]([O-])c1ccccc1 (configuration not stated) | 47.1 µM (inactive) | > 100 µM (inactive) | 19.1 µM (inactive) | 33.8 µM (inactive) | 18.2 µM (inactive) | 44.5 µM (inactive) | 49.8 µM (inactive) | 23.2 µM (inactive) | 24.5 µM (inactive) | 58.5 µM (inactive) | 27.7 µM (inactive) | – | 33.3 µM (inactive) | 28.8 µM (inactive) | > 100 µM (inactive) | 41.7 | 58.9 µM (inactive) | > 100 µM (inactive) | 60.8 µM (inactive) |
| CCc1cn2c(/C=N/N=C(N)N)c(-c3cc(C)c(Cl)cc3Cl)nc2s1 | 1.4 µM (inactive) | 1.27 µM (inactive) | 1.82 µM (inactive) | 1.01 µM (active) | 1.64 µM (inactive) | 1.71 µM (inactive) | 1.61 µM (inactive) | – | 0.865 µM (active) | 1.77 µM (inactive) | 1.98 µM (inactive) | 1.58 µM (inactive) | 1.67 µM (inactive) | 1.35 µM (inactive) | 1.82 µM (inactive) | 1.62 | 1.86 µM (inactive) | 1.4 µM (inactive) | – |
| CN/C(=N\N)NS(=O)(=O)c1cc(C)c(Cl)cc1S | > 100 µM (inactive) | 45.8 µM (inactive) | 41.5 µM (inactive) | 49.2 µM (inactive) | 25.1 µM (inactive) | 20.6 µM (inactive) | 93.5 µM (inactive) | > 100 µM (inactive) | > 100 µM (inactive) | – | > 100 µM (inactive) | 76 µM (inactive) | 29.9 µM (inactive) | 96.4 µM (inactive) | 69.2 µM (inactive) | 48.2 | – | 24.4 µM (inactive) | > 100 µM (inactive) |
| O=[N+]([O-])c1ccc2[nH]ncc2c1Cl | 31.2 µM (inactive) | > 10 µM (inactive) | 29.8 µM (inactive) | 18.3 µM (inactive) | – | 21.4 µM (inactive) | 23.6 µM (inactive) | 31.7 µM (inactive) | 0.0108 µM (active) | – | – | 25.3 µM (inactive) | 45 µM (inactive) | 17.5 µM (inactive) | 20.2 µM (inactive) | 23.3 | 33.1 µM (inactive) | 17.5 µM (inactive) | 50.6 µM (inactive) |
| CCCCCCCCCCOCCOCCOCCOCCCCC(O)CCCCCCCC1=C[C@H](C)OC1=O (some centres not stated) | 9.14 µM (inactive) | 14.1 µM (inactive) | 0.863 µM (active) | 4.02 µM (inactive) | 7.78 µM (inactive) | 14.8 µM (inactive) | 15.7 µM (inactive) | 13.3 µM (inactive) | 14.1 µM (inactive) | 0.774 µM (active) | 10.9 µM (inactive) | 10.6 µM (inactive) | 9.31 µM (inactive) | 4.98 µM (inactive) | 12.5 µM (inactive) | 12.7 | 7.89 µM (inactive) | 8.39 µM (inactive) | – |
| COc1ccc(NC(=O)C2=C(SC)C(=O)N=C2N)cc1 | > 100 µM (inactive) | > 100 µM (inactive) | > 100 µM (inactive) | > 100 µM (inactive) | > 100 µM (inactive) | > 100 µM (inactive) | – | – | > 100 µM (inactive) | > 100 µM (inactive) | > 100 µM (inactive) | > 100 µM (inactive) | – | > 100 µM (inactive) | 82 µM (inactive) | > 100 | > 100 µM (inactive) | > 100 µM (inactive) | > 100 µM (inactive) |
| Cc1cc(S(=O)(=O)NC2=Nc3cccc4cccc(c34)N2)c(S)cc1Cl | > 100 µM (inactive) | > 100 µM (inactive) | 77.4 µM (inactive) | > 100 µM (inactive) | > 100 µM (inactive) | > 100 µM (inactive) | > 100 µM (inactive) | – | > 100 µM (inactive) | – | > 100 µM (inactive) | 48.1 µM (inactive) | 55.1 µM (inactive) | 70.5 µM (inactive) | > 100 µM (inactive) | > 100 | 55.6 µM (inactive) | > 100 µM (inactive) | – |
